Results on two compounds are retold here after patent US10736857B2, “Treatment of pervasive developmental disorders with redox-active therapeutics” (PTC Therapeutics, Inc., priority 2008, dated 2020).

Molecules are shown by their SMILES. A value given as a limit tells only on which side of the number the result lay.

The assay relates to Human Dermal Fibroblasts from Autistic Patients (ASD fibroblasts). Briefly: Rescue of ASD fibroblasts stressed by addition of L-buthionine-(S,R)-sulfoximine (BSO), Calcein AM viability read-out. It counts as cell-based. As to conditions: Fibroblast, 1 mM final BSO, 48 hours, Calcein AM fluorescence, viability relative to non-BSO treated fibroblasts (100%), tested three times, read-out: EC50, protection against ASD (rescue of BSO-stressed ASD fibroblasts). The method, then: A screen was performed to identify compounds effective for the amelioration of ASD. Test samples, and solvent controls were tested for their ability to rescue ASD fibroblasts stressed by addition of L-buthionine-(S,R)-sulfoximine (BSO).
MEM (a medium enriched in amino acids and vitamins, catalog no. Gibco 11965) and Fetal Calf Serum were obtained from Invitrogen. Basic fibroblast growth factor and epidermal growth factor were purchased from PeproTech. Penicillin-streptomycin-glutamine mix, L-buthionine (S,R)-sulfoximine, and insulin from bovine pancreas were purchased from Sigma. Calcein AM was purchased from Molecular Probes. Cell culture medium (ATP) was made by combining 75 ml Fetal Calf Serum, 100 U/ml penicillin, 100 μg/ml streptomycin, 2 mM glutamine, 10 ng/ml EGF, and 10 ng/ml bFGF; MEM EBS was added to make the volume up to 500 ml. A 10 mM BSO solution was prepared by dissolving 444 mg BSO in 200 ml of medium with subsequent filter-sterilization. […]
100 μl of PBS containing 1.2 μM Calcein AM were then added to each well. […] After that time the PBS was discarded, the plate gently tapped on a paper towel and fluorescence (excitation/emission wavelengths of 485 nm and 525 nm, respectively) was read on a Gemini fluorescence reader. […]
The viability of non-BSO treated fibroblasts was set as 100%, and the viability of the BSO- and compound-treated cells was calculated as relative to this value.

As to `CC(C)=CCC/C(C)=C/CC/C(C)=C/CCC(C)(O)CCC1=C(C)C(=O)C(C)=C(C)C1=O` (centres unmarked) [2-(3-hydroxy-3,7,11,15-tetramethylhexadeca-6,10,14-trienyl)-3,5,6-trimethylcyclohexa-2,5-diene-1,4-dione], the EC50 is under 150 nM.

Turning to `CCCCCCCCCC1=C(C)C(=O)C(C)=C(C)C1=O` [2,3,5-trimethyl-6-nonylcyclohexa-2,5-diene-1,4-dione], the EC50 was under 150 nM.
